In experiment [1] the target is T1, Atypical chemokine receptor 3 (Homo sapiens, UniProt P25106). The experiment can be described thus: Displacement of [125I]-CXCL12 from human CXCR7 expressed in HEK293 cells after 3 hrs. Format: cell-based. On the technique in general: Displacement assays read how much labelled ligand stays bound in the presence of the test substance.
Experiment [2] has as its target T1, Atypical chemokine receptor 3. The experiment can be described thus: Agonist activity at human CXCR7 expressed in HEK293T cells co-expressing beta-arrestin2-YFP assessed as beta-arrestin2 recruitment after 1 hr by BRET assay. Format: functional, cell-based, HEK-293T. As to conditions: for Activity: HEK-293T. (In general: Activated receptors often draw arrestin, which recruitment assays turn into a signal.)

For experiment [3] the target is unchanged. The experiment can be described thus: Agonist activity at human CXCR7 expressed in HEK293 cells assessed as reduction of receptor surface expression at 10^-5 M after 1 hr by ELISA based internalization assay. Format: functional, cell-based. (An ELISA detects its analyte on a solid surface through an enzyme-linked reagent.)
Experiment [4] shares this target. The experiment can be described thus: Agonist activity at human CXCR7 expressed in HEK293 cells assessed as reduction of receptor surface expression after 1 hr by ELISA based internalization assay. Format: functional, cell-based.

Molecules are shown by their SMILES. Activity calls are given as the source filed them. The calls are words filed in the database; no cut-off is given here.

One may read the Ki as a dissociation constant, usually derived from enzyme kinetics or from competition with a known ligand. A low value points to a stronger hold on the target. The term EC50 denotes the midpoint of the concentration-response curve.

T1 sequence (P25106 whole entry): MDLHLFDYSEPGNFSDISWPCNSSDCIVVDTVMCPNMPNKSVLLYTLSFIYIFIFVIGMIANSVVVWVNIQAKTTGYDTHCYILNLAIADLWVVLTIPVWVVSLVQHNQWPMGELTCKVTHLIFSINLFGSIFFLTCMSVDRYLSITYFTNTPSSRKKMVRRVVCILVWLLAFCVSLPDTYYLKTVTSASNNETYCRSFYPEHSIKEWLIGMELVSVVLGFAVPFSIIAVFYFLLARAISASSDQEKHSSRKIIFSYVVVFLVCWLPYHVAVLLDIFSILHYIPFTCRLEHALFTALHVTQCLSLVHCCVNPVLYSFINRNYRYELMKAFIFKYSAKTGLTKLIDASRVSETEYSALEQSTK

As to `COc1cc(C(=O)N(CCCN2CCOCC2)C/C(C)=C/c2ccccc2)cc(OC)c1OC`, the inhibition constant Ki in experiment [1] is 398 nM.
Regarding `COc1cc(C(=O)N(CCCO)C/C(C)=C/c2ccccc2)cc(OC)c1OC`, in experiment [1], the affinity, expressed as Ki, was 1580 nM.
In turn, `COc1ccc(/C=C(\C)CN(CCC2CCCN2C)C(=O)c2ccc(OC)c(OC)c2)c(F)c1` (racemic) gave an inhibition constant Ki in experiment [1] of 1260 nM.
Same read-out and setting: the value for `COc1cc(C(=O)N(CCCN2CCCCC2C)C/C(C)=C/c2ccccc2)cc(OC)c1OC` (racemic) was 200 nM.
In experiment [1], `COc1cc(C(=O)N(CCC2CCCN2C)C/C(C)=C/c2ccccc2)cc(OC)c1OC` (racemic) showed a Ki of 15.8 nM.
`COc1cc(C(=O)N(C/C=C(\C)c2ccccc2)CCC2CCCN2C)cc(OC)c1OC` (racemic): the Ki in experiment [1] was 12.6 nM.
Take `COc1cc(C(=O)N(C/C=C/c2ccccc2)CCC2CCCN2C)cc(OC)c1OC` (racemic): the Ki in experiment [1] was 794 nM. Against the preceding compound, the Ki is about 63-fold higher.
Turning to `COc1ccc(C(=O)N(CCC2CCCN2C)C/C(C)=C/c2ccccc2)c(OC)c1` (racemic), the affinity in experiment [1], expressed as Ki, was 1260 nM.
In turn, `COc1ccc(C(=O)N(CCC2CCCN2C)C/C(C)=C/c2ccccc2)cc1OC` (racemic) showed a Ki in experiment [1] of 25.1 nM.
Still for that read-out and setting: the value for `COc1ccc(C(=O)N(CCC2CCCN2C)C/C(C)=C/c2ccccc2)cc1C` (racemic) was 794 nM.
In the case of `C/C(=C\c1ccccc1)CN(CCC1CCCN1C)C(=O)c1ccc2c(c1)OCCO2` (racemic), the Ki in experiment [1] was 794 nM.
Still for that read-out and setting: the result for `COc1cc(C(=O)N(CCC2CCCN2C)C/C(C)=C/c2ccc(F)cc2F)cc(OC)c1OC` (racemic) reads 31.6 nM; that for `COc1ccc(C(=O)N(CCC2CCCN2C)C/C(C)=C/c2ccc(F)cc2F)cc1OC` (racemic), 100 nM.
In experiment [1], `COc1cc(C(=O)N(CCC2CCCN2C)C/C(C)=C/c2ccc(F)cc2)cc(OC)c1OC` (racemic) had a Ki of 50.1 nM.
The compound `COc1ccc(C(=O)N(CCC2CCCN2C)C/C(C)=C/c2ccc(F)cc2)cc1OC` (racemic) showed a Ki in experiment [1] of 79.4 nM.
In turn, `COc1cc(C(=O)N(CCC2CCCN2C)C/C(C)=C/c2cccc(F)c2)cc(OC)c1OC` (racemic) gave a Ki in experiment [1] of 79.4 nM. That is a double-digit nanomolar value.
In experiment [1], `COc1ccc(C(=O)N(CCC2CCCN2C)C/C(C)=C/c2cccc(F)c2)cc1OC` (racemic) gave a Ki of 100 nM. This Ki and that of the compound before are within 1.5-fold of each other.
In turn, `COc1cc(C(=O)N(CCC2CCCN2C)C/C(C)=C/c2cc(F)cc(C(F)(F)F)c2)cc(OC)c1OC` (racemic) had a Ki in experiment [1] of 5010 nM. Further, in experiment [2], the EC50 was 1400 nM. Besides, in experiment [3], the result was Active.
In turn, `COc1ccc(C(=O)N(CCC2CCCN2C)C/C(C)=C/c2cc(F)cc(C(F)(F)F)c2)cc1OC` (racemic) showed a Ki in experiment [1] of 5010 nM.
For the compound `COc1cc(C(=O)N(CCC2CCCN2C)C/C(C)=C/c2ccccc2F)cc(OC)c1OC` (racemic), the Ki in experiment [1] is 7.94 nM. In addition, in experiment [2], the EC50 came to 1.6 nM and the Activity entry is “Dose-dependent effect”. Moreover, in experiment [4], the Activity entry is “Dose-dependent effect” and the EC50 was 14.1 nM.
Compound `COc1ccc(C(=O)N(CCC2CCCN2C)C/C(C)=C/c2ccccc2F)cc1OC` (racemic) had a Ki in experiment [1] of 20 nM. In experiment [2], the 50% effective concentration (EC50) worked out at 1 nM and the Activity result was “Dose-dependent effect”. Further, in experiment [4], the Activity entry is “Dose-dependent effect” and the EC50 turned out to be 23.7 nM.
Take `COc1ccc(/C=C(\C)CN(CCC2CCCN2C)C(=O)c2cc(OC)c(OC)c(OC)c2)c(F)c1` (racemic): in experiment [1], affinity was put at a Ki of 1260 nM. In other words, the single-digit micromolar range.
`C/C(=C\c1ccc(F)cc1F)CN(CCC1CCCN1C)C(=O)c1ccc2c(c1)OCCO2` (racemic) showed a Ki in experiment [1] of 1580 nM.
On the same count and under the same terms, the value for `C/C(=C\c1ccc(F)cc1F)CN(CCC1CCCN1C)C(=O)c1ccc2c(c1)OCO2` (racemic) was 3160 nM.

Source of the values: ChEMBL document CHEMBL2010737, “Synthesis, modeling and functional activity of substituted styrene-amides as small-molecule CXCR7 agonists” (Eur J Med Chem, 2012).
